Experimental data taken from US20050180954A1, “Drug for treating bone disorders” (priority 1995, published 2005).

Tests used:
[1] = tested on: MC3T3-E1 cells; assay: Proliferation of murine osteoblastic cells MC3T3-E1 (in vitro single administration); type: cell-based, mouse; settings: 10,000 units/ml; cell count on Day 6
Procedure: Murine osteoblast like cells MC3T3-E1 originated from C 57 BL/6 mouse (Kodama et al., Jap. J. Oral Biol., 23, 899, 1982) were washed with PBS(−) and the cells were dissociated by incubation in PBS(−) containing 0.1% pronase (Actinase E, Kaken Pharmaceuticals Co.), followed by dispersing the cells in α-MEM containing 10% JCS and 50 μg/ml of L-ascorbic acid (ASA). The ability to promote proliferation of cells was evaluated as follows. That is, MC3T3-E1 cells were placed in each well in 24-well plates (Corning) in an amount of 5000 cells/well. Then each IFN dilution was added to each well in an amount of 0.1 ml/well, and the culturing was begun. On Day 2, the medium was removed and the each IFN dilution was added in an amount of 0.5 ml/well (total amount of liquid: 0.5 ml/well). On Day 6, the medium was removed and the cells were washed with PBS(−) and a mixed enzyme solution of 0.1% pronase/0.1% collagenase was added to each well in an amount of 200 μl/well, followed by allowing to react at 37° C. for 15 minutes. Then α-MEM containing 10% fetal calf serum (Gibco, hereinafter referred to as “FCS” for short) was added in an amount of 300 μl/well to disperse the cells therein and the number of the cells was counted with a Coulter counter.

[2] = tested on: MC3T3-E1 cells; assay: Quantification of calcium in calcified foci of MC3T3-E1; type: cell-based, mouse; settings: 1000 units/ml; MC3T3-E1, Day 14
Procedure: MC3T3-E1 cells were placed in each well in 24-well plates in an amount of 50,000 cells/well and cultured to confluency. The medium was removed and fresh α-MEM containing 10% JCS, 50 μg/ml of L-ascorbic acid and 10 mM β-glycerophosphate was added in an amount of 0.9 ml/well, followed by adding 0.1 ml/well of medium containing varying concentration of IFN. The medium was replaced with IFN-free medium every 4 days. On Day 14, the medium was removed and the cells were lightly washed with Hank's solution. Anhydrous ethanol was added in an amount of 1 ml/well and fixation was carried out at room temperature for 15 minuets. Then the anhydrous ethanol was replaced with fresh anhydrous ethanol in an amount of 1 ml/well and 5 minutes later, each well was dried in the air. Then 1N hydrochloric acid was added in an amount of 1 ml/well and extraction was carried out at room temperature for 30 minutes. The total contents of each well were transferred to an Eppendorf tube and centrifuged at 1800×g at 4° C. for 10 minutes The amount of calcium in the supernatant was measured by Calcium C Test Wako and the amount of inorganic phosphorus in the supernatant was measured by Phospha B Test Wako. […] The IC50 value was as low as about 10 units/ml (FIG. 5).

## MuIFNβ: murine interferon β, Lot M-0034, prepared by Toray Industries, Inc. by genetic engineering technique
[1]
  inhibition of proliferation of MC3T3-E1 cells: did not inhibit the proliferation at all
[2]
  calcium deposition smaller than the control: 20%
